From patent publication US11167039B2, “MET antibody drug conjugates” (priority 2016, dated 2021)

Experiments:
CFPAC-1 = experiment: Cell killing, CFPAC-1; format: cell-based, human; set-up: key: Sensitive; Resistant; details: CFPAC-1, PANC Ca
Experimental: (§1) Briefly described, 2-3×10^3 cells/well in 100 μL of culture medium may be plated in 96 well plates and incubated overnight at 37° C., 5% CO2. The MET-ADCs, MET antibody(ies), control MMAE or control hIgG4 conjugated to MMAE with cysteine conjugation antibody(ies) may be diluted 1:3 in serum-free culture medium starting from 100 nM (final) in 50 μL as 3× concentrations to the HT-29 cells. At the end of an additional 5-6 days of cell growth at 37° C. in a humidified incubator with 5% CO2, the plates may be equilibrated to room temperature for 30 minutes and 100 μL/well of CellTiter-Glo® reagent (Promega Corp., Fitchburg, Wis.) may then be added to assess cell viability. Cell viability may be determined by measuring luminescence.
(§2) Various tumor cell lines and normal human cells may be tested for MET-ADC induced cell killing activity essentially as described above in Example 10 as assessed for MET receptor density. MET cell surface density was determined by indirect immunofluorescence staining of cell surface antigens on cultured cells using QIFIKIT (Dako). […] Following a forty-five minute incubation, cells may be incubated for 1 hour on ice with FITC conjugated antibody diluted 1:50 in FACS buffer. Then cells may be washed and receptor numbers may be determined by indirect immunofluorescence staining of the QIFIKIT beads using a Becton Dickinson LSRII flow cytometer.

HPAF-II = experiment: Cell killing, HPAF-II; format: cell-based, human; set-up: key: Sensitive; Resistant; details: PANC Ca
Experimental: as §1, §2

SW 1990 = experiment: Cell killing, SW 1990; format: cell-based, human; set-up: key: Sensitive; Resistant; details: SW 1990, PANC Ca
Experimental: as §1, §2

LS411N = experiment: Cell killing, LS411N; format: cell-based, human; set-up: key to Sensitive/ Resistant: Sensitive; Resistant
Experimental: as §1, §2

HCT-116 = experiment: Cell killing, HCT-116; format: cell-based, human; set-up: key: Sensitive; Resistant; details: HCT-116, Colorectal Ca
Experimental: as §1, §2

Caco-2 = experiment: Cell killing, Caco-2; format: cell-based, human; set-up: key: Sensitive; Resistant; details: Caco-2, Colorectal Ca
Experimental: as §1, §2

EBC-1 = experiment: Cell killing, EBC-1; format: cell-based, human; set-up: key: Sensitive; Resistant; details: EBC-1, NSCLC
Experimental: as §1, §2

SNU-5 = experiment: Cell killing, SNU-5; format: cell-based, human; set-up: key: Sensitive; Resistant; details: SNU-5, Gastric Ca
Experimental: as §1, §2

Hs 746T = experiment: Cell killing, Hs 746T; format: cell-based, human; set-up: key: Sensitive; Resistant; details: Gastric Ca
Experimental: as §1, §2

H1993 = experiment: Cell killing, H1993; format: cell-based, human; set-up: key: Sensitive; Resistant; details: H1993, NSCLC
Experimental: as §1, §2

H441 = experiment: Cell killing, H441; format: cell-based, human; set-up: key: Sensitive; Resistant; details: H441, NSCLC
Experimental: as §1, §2

SNU869 = experiment: Cell killing, SNU869; format: cell-based, human; set-up: key: Sensitive; Resistant; details: SNU869, Cholangiocarcinoma
Experimental: as §1, §2

SNU1196 = experiment: Cell killing, SNU1196; format: cell-based, human; set-up: key: Sensitive; Resistant; details: SNU1196, Cholangiocarcinoma
Experimental: as §1, §2

T47D = experiment: Cell killing, T47D; format: cell-based, human; set-up: key: Sensitive; Resistant; details: Breast Ca
Experimental: as §1, §2

NCI-H292 = experiment: Cell killing, NCI-H292; format: cell-based, human; set-up: key: Sensitive; Resistant; details: NCI-H292, NSCLC
Experimental: as §1, §2

OV79 = experiment: Cell killing, OV79; format: cell-based, human; set-up: key: Sensitive; Resistant; details: OV79, Ovarian Ca
Experimental: as §1, §2

PC3 = experiment: Cell killing, PC3; format: cell-based, human; set-up: key: Sensitive; Resistant; details: PC3, Prostatic Ca
Experimental: as §1, §2

A204 = experiment: Cell killing, A204; format: cell-based, human; set-up: key: Sensitive; Resistant; details: A204, Rhabdomyosarcoma
Experimental: as §1, §2

humen fresh hepatocyte = experiment: Cell killing, fresh hepatocyte; format: cell-based, human; set-up: key: Sensitive; Resistant
Experimental: as §1, §2

[1] = system: humen fresh activated PBMC; experiment: Cell killing, fresh activated PBMC; format: cell-based, human; set-up: key: Sensitive; Resistant; details: 3 donors
Experimental: as §1, §2

KP-4 xenograft = experiment: KP-4 pancreatic cancer xenograft model; format: in vivo, mouse; details: vs control hIgG4-Lys-ADC
Experimental: Female athymic nude mice age 6- to 7-weeks old are available commercially, including from Harlan Laboratories (Indianapolis, Ind.). The mice are allowed to acclimate for one week and fed ad libitum on a normal low fat (4.5%) diet, which may be continued for the duration of the study. Tumor cells may be purchased from ATCC and may be cultured in cell culture media such as RPMI 1640 (Life Technologies) with L-glutamine, 25 mM HEPES supplemented with 10% FBS and 1 mM Na Pyruvate. Cells may be detached, washed with serum free medium and then resuspended at a final concentration of 50×10^6 cells/mL in serum free RPMI 1640. Tumor cells, approximately 5×10^6, may be injected subcutaneously in the rear flank of subject mice in a 1:1 mixture of serum free growth medium and Matrigel (Becton Dickinson, Bedford, Mass.). Tumor and body weight measurements may be performed twice weekly. Prior to treatment, mice can be randomized based on tumor size using a randomization algorithm. Treatments may be started when the average tumor volume reaches 100 mm^3. […]
MET-ADCs and control hIgG4-MMAE may be prepared in Phosphate Buffered Saline (PBS) prior to dose. Tumor size may be determined by caliper measurements. […] Log volume data can be analyzed with two-way repeated measures ANOVA by time and treatment using SAS PROC MIXED software (SAS Institutes Inc, Cary, N.C.). […]

[2] = system: colorectal cancer PDX tumors; experiment: Colorectal cancer PDX models; format: in vivo, mouse; details: 1 or 3 mg/kg weekly, four doses
Description: Body weight can also be assessed regularly.
Colorectal tumor samples from 37 human colorectal cancer patients were individually implanted into different immunocompromised mice (i.e., each mouse carried one tumor derived from a patient's […] tumor) essentially as described above in this Example 13.

MET-ADC#1: emibetuzumab lysine-conjugated via (2,5-dioxopyrrolidin-1-yl) 2-azidoacetate and Octyne-β-Glucn-MMAE
Sensitive/ Resistant (CFPAC-1): R
Sensitive/ Resistant (HPAF-II): S
Sensitive/ Resistant (SW 1990): R
cell killing activity in LS411N cells (LS411N; LS411N (BRAF, PIK3) colon cancer cells): killed
Sensitive/ Resistant (LS411N; LS411N, Colorectal Ca): S
Sensitive/ Resistant (HCT-116): R
Sensitive/ Resistant (Caco-2): R
Sensitive/ Resistant (EBC-1): S
Sensitive/ Resistant (SNU-5): S
Sensitive/ Resistant (Hs 746T): S
Sensitive/ Resistant (H1993): S
Sensitive/ Resistant (H441): S
Sensitive/ Resistant (SNU869): S
Sensitive/ Resistant (SNU1196): R
Sensitive/ Resistant (T47D): R
Sensitive/ Resistant (NCI-H292): S
Sensitive/ Resistant (OV79): S
Sensitive/ Resistant (PC3): S
Sensitive/ Resistant (A204): R
Sensitive/ Resistant (humen fresh hepatocyte): R
Sensitive/ Resistant [1]: R
anti-tumor activity (KP-4 xenograft): dramatic anti-tumor activity
Complete Response (CR) ([2]; 37 PDX): 5.4%
activity in colorectal cancer PDX models ([2]; vs control hIgG4-ADC): little activity
